pEC50: −log10 of the molar value. The source made the active and inactive calls. The rule behind the calls is not given here. A value given as a limit tells only on which side of the number the result lay.

The subject of the test is UPR adaptive arm reporter cells, luciferase luminescence. Nature of the test: activators of adaptive UPR signalling, dose response, cell-based, luciferase luminescence (AID 489032).
Usually EC50 stands for the midpoint of the concentration-response curve. In the case of `Cc1ccc(Cn2c(=O)n(-c3ccccc3)c(=O)c3ccc(C(=O)NCc4ccco4)cc32)cc1`, the EC50 was > 80 µM (inactive).
For `CCC(=O)Nc1ccc(-c2cc(-c3ccccc3)nc(-c3ccc(NC(=O)CC)cc3)n2)cc1`, the EC50 was > 80 µM (inactive).
Usually pEC50 stands for the negative decadic logarithm of the EC50, by convention in mol/L. `Nc1nc(-c2cc(O)ccc2[N+](=O)[O-])cc(-c2ccccc2)c1[N+](=O)[O-]`: the pEC50 was 5.08.
On to `CN(C)c1ccc(/C=N/NC(=O)c2ccc(NC(=O)c3ccccc3)cc2)cc1`, for which the EC50 was > 80 µM (inactive).
As to `COc1ccc(C2NCCc3c2[nH]c2ccccc32)cc1COc1ccc(F)cc1` (configuration not stated), the EC50 was > 80 µM (inactive).
On the same count and under the same terms, in the case of `O=C(/C=C\c1cn(-c2ccccc2)nc1-c1ccccc1)Nc1nccs1` it was > 80 µM (inactive); in that of `O=C(NC(=S)Nc1ccc(NC(=O)c2cccs2)cc1)c1cc2ccccc2o1`, > 80 µM (inactive).
On the same count and under the same terms, in the case of `Oc1cc(-c2ccc(N3CCCCC3)nc2)cc2cccnc12` it was > 80 µM (inactive); in that of `Cc1nn(Cc2ccccc2)c(C)c1NC(=O)CSc1nc(C2CC2)nc2c1cnn2-c1ccccc1`, 47.2 µM (inactive); in that of `CCCCN1C(=O)/C(=C2/Sc3ccc(OC)cc3N2CC)SC1=S`, > 80 µM (inactive).
Still for that read-out and setting: in the case of `CCOc1cc(/C=N/NC(N)=S)cc(Br)c1OCc1ccccc1C` it was > 80 µM (inactive).
For `COc1ccccc1CCNC(=O)C1CCN(c2nnc(C)c3c(C)n(-c4ccc(C)cc4)nc23)CC1`, the pEC50 is 4.75.
For `COc1ccc2nc(NC(=O)c3cccc(-c4cc5ccccc5oc4=O)c3)sc2c1`, the EC50 was > 80 µM (inactive).
With `CCC1(c2ccc(F)cc2)NC(=O)N(CC(=O)Nc2ccc(-c3nc4ccc(C)cc4s3)cc2)C1=O` (configuration not stated), the EC50 is > 80 µM (inactive).
As for `CCOC(=O)c1c(NC(=O)c2cc3n(n2)C(C(F)(F)F)CC(c2cccs2)N3)sc(C)c1C` (configuration not stated), the pEC50 is 4.80.
Turning to `Cc1ccc(S(=O)(=O)Cc2cc(F)c([N+](=O)[O-])cc2[N+](=O)[O-])cc1`, the EC50 was > 80 µM (inactive).
Regarding `Cc1c(Cl)cccc1Nc1nc(NCCO)c2ccccc2n1`, the EC50 was 26.6 µM (inactive).
Still for that read-out and setting: in the case of `COc1cc(NC(=O)c2ccco2)c(C(=O)OCC(=O)c2c[nH]c3ccccc23)cc1OC` it was > 80 µM (inactive); in that of `CCc1nc(C)cn1S(=O)(=O)c1cc([N+](=O)[O-])ccc1Cl`, > 80 µM (inactive); in that of `Cc1ccc(-c2nc(N/N=C/c3cccc([N+](=O)[O-])c3)c3ccccc3n2)cc1`, > 80 µM (inactive).
The same measure, in the same setting: in the case of `CCCc1nc2ccccc2c(=O)n1/N=C/c1ccc(O)c(O)c1` it was > 80 µM (inactive); in that of `Cc1cc(C)c2c(n1)sc1c(-c3ccccc3)c(C#N)c(N)nc12`, > 80 µM (inactive); in that of `O=C(Nc1nc2ccc(Cl)cc2s1)c1ccc(N2CCCCC2)c([N+](=O)[O-])c1`, > 80 µM (inactive).
Still for that read-out and setting: in the case of `Cc1ccc(/C=C/C(=O)c2cc(Br)ccc2OC(=O)c2ccco2)cc1` it was 37.9 µM (inactive); in that of `CCCCCn1c(N)c(-c2nc3ccccc3o2)c2c([N+](=O)[O-])nn(CC)c(=O)c21`, > 80 µM (inactive); in that of `CCOC(=O)c1c(NC(=O)c2cc(-c3ccc(O)cc3)on2)sc(C(C)=O)c1C`, > 80 µM (inactive).
Take `Cc1cccc2cc(C(c3nnnn3Cc3ccccc3)N3CCCc4ccccc43)c(=O)[nH]c12` (configuration not stated): the EC50 was 32.5 µM (inactive).
For `N#Cc1cnn2c1nc(N1CCCCC1)c1ccccc12`, the EC50 was > 80 µM (inactive).
Same read-out and setting: in the case of `CCOC(=O)C1=C(C)n2c(s/c(=C/c3cccc([N+](=O)[O-])c3)c2=O)=NC1c1ccc(O)c(OC)c1` (configuration not stated) it was > 80 µM (inactive); in that of `CCOC(=O)c1sc(-c2ccccc2)cc1NC(=O)Nc1ccc([N+](=O)[O-])cc1`, 24.2 µM (inactive).
On the same count and under the same terms, in the case of `O=C(O)c1ccc(N2C(=O)/C(=C/c3ccc(-c4ccc([N+](=O)[O-])cc4)o3)C=C2c2ccccc2)cc1` it was > 80 µM (inactive); in that of `O=C(NN1C(=O)/C(=C/c2ccc(O)c(O)c2)SC1=S)c1ccccc1`, > 80 µM (inactive).
With `O=Cc1cc2ccccc2nc1SCc1ccc(Cl)cc1`, the EC50 was 40.2 µM (inactive).
As to `N#Cc1ccc(-c2ccc(Cl)cc2)nc1SCC(=O)c1cccc(Cl)c1`, the pEC50 was 4.96.
`CN(C)CCCN(C(=O)c1ccc(S(=O)(=O)N2CCc3ccccc3C2)cc1)c1nc2ccc(F)cc2s1`: the EC50 was > 80 µM (inactive).
Turning to `Cc1ccc(NC(=O)c2cc(S(=O)(=O)N(C)C)ccc2N2CCCC2)cc1S(=O)(=O)N(C)C`, the EC50 is 32.1 µM (inactive).
With `Brc1ccc2c(c1)C(c1ccc(N3CCOCC3)cc1)=NNC(c1cccs1)=N2`, the EC50 is 26.4 µM (inactive).
Turning to `CCOC(=O)/C=c1\s/c(=C\c2ccc3cc(OC)ccc3c2)c(=O)n1CC(=O)NCC1CCCO1` (configuration not stated), the EC50 was 54.1 µM (inactive).
With `Cc1cc(C)cc(NC(=O)/C(C#N)=C/c2cn(CC(=O)NCc3ccco3)c3ccccc23)c1`, the pEC50 is 5.04.
As for `CCc1ccc(N2C(=O)NC(=O)/C(=C\c3cccn3CCOc3ccc(C(C)C)cc3)C2=O)cc1`, the EC50 was > 80 µM (inactive).
The same measure, in the same setting: in the case of `CC(NCC(O)COCCC12CC3CC(CC(C3)C1)C2)c1ccccc1` (configuration not stated) it was > 80 µM (inactive); in that of `Cc1ccc2nc(-c3ccc(NC(=S)NC4CC(C)(C)NC(C)(C)C4)cc3)sc2c1`, > 80 µM (inactive).
With `Cc1ccc(C(=O)Nc2cc(S(=O)(=O)N3CCOCC3)ccc2N2CCCC2)cc1`, the EC50 is 63.2 µM (inactive).
The same measure, in the same setting: in the case of `Cc1ccc2c(n1)sc1c(-c3ccc(Br)cc3)c(C#N)c(N)nc12` it was > 80 µM (inactive).
For the compound `Cc1cc(N2CCN(c3nc(-c4ccc([N+](=O)[O-])cc4)cs3)CC2)c2ccccc2n1`, the EC50 is > 80 µM (inactive).
As to `CCOc1ccccc1NC(=O)Cn1c(=O)n(-c2ccccc2)c(=O)c2oc3ccccc3c21`, the EC50 is > 80 µM (inactive).
On to `CN(C)CCCN(C(=O)c1ccc(S(=O)(=O)N2CCCCCC2)cc1)c1nc2ccc(Br)cc2s1`, for which the EC50 was > 80 µM (inactive).
Same read-out and setting: in the case of `COc1cc(N(C(=O)Cc2cccs2)C(C(=O)NC2CCCCC2)c2ccc(C)cc2)ccc1-n1cnnn1` (configuration not stated) it was > 80 µM (inactive); in that of `CCOC(=O)/C(=N\Nc1ccc(C(C)=O)cc1)c1csc(Nc2ccccc2)n1`, > 80 µM (inactive).
With `O=C1c2ccccc2C(=O)N1/N=C/c1ccc(O)c(O)c1`, the EC50 was > 80 µM (inactive).
Take `O=C(/C(=N/N=C/c1ccc(O)c(O)c1)c1ccccc1)c1ccccc1`: the EC50 was > 80 µM (inactive).
On the same count and under the same terms, in the case of `CCOC(=O)c1sc(NC(=S)NC(=O)c2ccccc2)c(C(=O)OCC)c1C` it was > 80 µM (inactive).
With `CCOc1cc(/C=N/N=C(\N)c2nonc2N)cc(Br)c1OCc1cccc2ccccc12`, the EC50 is > 80 µM (inactive).
The same measure, in the same setting: in the case of `CCCCCCCCCCOC(=O)Cn1c(COc2ccc(OC)cc2)[n+](C)c2ccccc21` it was > 80 µM (inactive); in that of `OCCCn1c(C2CCCN2c2nc(-c3ccc(F)cc3)cs2)nc2cc(Cl)c(N3CCCCC3)cc21` (configuration not stated), > 80 µM (inactive).
Turning to `C/C(Cl)=C\Cn1c(O)c(N=NC(N)=S)c2cc(Br)ccc21`, the pEC50 was 5.39.
In the case of `Cc1ccc2nsnc2c1NC(=O)c1ccc(-c2cc(Cl)ccc2Cl)o1`, the EC50 is > 80 µM (inactive).

For the origin of these results see PubChem BioAssay AID489032 (Sanford-Burnham Center for Chemical Genomics, 2010).
